Measured values: patent US9932392B2, “Prevention of infection” (priority 2012, dated 2018)

Columns and labels:
[1] = test system: toxinogenic C. difficile strain 10465; assay: Primary prevention of C. difficile infection (mouse model); type: in vivo, C57BL/6 mice; settings: po gavage day -1 to 3 (5 doses), FIG. 6
Procedure: (§1) C57BL/6 mice were housed in cages with free access to chow (Purina 5000) and tap water. Animals were treated with a mixture of oral antibiotics (kanamycin, gentamicin, colistin, metronidazole, and vancomycin) for 3 days as previously described (Chen et al (2008) Gastroenterology 135: 1984-92). Two days later, they were given parenteral clindamycin phosphate (10 mG/kg s.c.) [Day −1]. One day later [Day 0] they were challenged by gavage with 0.5×10^5 cfu of toxinogenic C. difficile strain 10465. A moderate to fulminant colitis developed 1 to 5 days after the administration of C. difficile. Untreated, this progresses rapidly into severe and fatal colitis in the majority of animals. The test compounds (suspended in carbonate buffer) were administered to groups at the dosage levels as shown in Table 1 (n=10 per group except group 4). Dosing (by gavage) started 1 day before C. difficile challenge [Day −1] and continued daily for 5 days.
(§2) Animals were weighed daily and observed three times daily for morbidity and presence or absence of severe CDI with diarrhea. Animals judged to be in a moribund state [extended period of weight loss progressing to an emaciated state, anorexia for 24-48 hrs, prolonged lethargy (more than 3 days), signs of paralysis, skin erosions or trauma, hunched posture, distended abdomen] were euthanized by a single injection of sodium pentobarbital. […]

[2] = test system: toxinogenic C. difficile strain 10465; assay: Prevention of recurrence of C. difficile infection after vancomycin (mouse model); type: in vivo, C57BL/6 mice; settings: vancomycin day -1 to 3 (5 doses), then Ig 400 mG/kg po day 4 to 8 (5 doses); observation until day 28; FIG. 7
Procedure: as §1, §2

CN[C@H](CC(C)C)C(=O)N[C@H]1C(=O)N[C@@H](CC(N)=O)C(=O)N[C@H]2C(=O)N[C@H]3C(=O)N[C@H](C(=O)N[C@H](C(=O)O)c4cc(O)cc(O)c4-c4cc3ccc4O)[C@H](O)c3ccc(c(Cl)c3)Oc3cc2cc(c3O[C@@H]2O[C@H](CO)[C@@H](O)[C@H](O)[C@H]2O[C@H]2C[C@](C)(N)[C@H](O)[C@H](C)O2)Oc2ccc(cc2Cl)[C@H]1O [Vancomycin]
fraction of animals with recurrence of C. difficile infection after stopping treatment [1]: 60% | survival rate ([1]; vancomycin 50 mG/kg, IgA 400 mG/kg): 40% | rate of recurrence of infection (animals) [2]: 6 out of 10
